Measured values reported in PubChem BioAssay (NCI).
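These data come from cells grown in 96-well plates and exposed to compound for 48 hours at five concentrations. GI50 is the concentration that inhibits growth by half. TGI: concentration producing complete growth inhibition.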

Assays:
Experiment in all cases: growth of human tumour cells (NCI), 48 h
SK-MEL-5 melanoma = test system: SK-MEL-5 melanoma
T-47D breast = test system: T-47D breast
NCI-H23 lung = test system: NCI-H23 lung
NCI-H226 lung = test system: NCI-H226 lung
EKVX NSCLC = test system: EKVX NSCLC
SNB-19 CNS = test system: SNB-19 CNS
IGROV1 ovarian = test system: IGROV1 ovarian

SMILES | TGI (SK-MEL-5 melanoma) | TGI (T-47D breast) | TGI (NCI-H23 lung) | TGI (NCI-H226 lung) | TGI (EKVX NSCLC) | TGI (SNB-19 CNS) | TGI (IGROV1 ovarian) | GI50 (NCI-H23 lung) | GI50 (SNB-19 CNS) | GI50 (IGROV1 ovarian) | GI50 (SK-MEL-5 melanoma) | GI50 (T-47D breast) | GI50 (NCI-H226 lung) | GI50 (EKVX NSCLC)
COc1c2c(c3c(c1CCC(=O)O)OC(C)(C)C=C3)OC(C)(C)C=C2 | > 100 µM | > 100 µM | > 100 µM | > 100 µM | > 100 µM | > 100 µM | > 100 µM | – | – | – | – | – | – | –
O=C(Cn1ccc(=O)[nH]c1=O)Nc1ccc(C(=O)O)c(O)c1 | > 100 µM | > 100 µM | > 100 µM | > 100 µM | > 100 µM | > 100 µM | > 100 µM | – | – | – | – | – | – | –
Cc1ccc(/C=C2\CN(C(=O)OC(C)(C)C)C/C(=C\c3ccc(C)cc3)C2=O)cc1 | – | > 100 µM | > 100 µM | > 100 µM | > 100 µM | > 100 µM | > 100 µM | 0.516 µM | 0.226 µM | 0.367 µM | – | – | – | –
C[C@@H](C(=O)Nc1ccc(Cl)cc1)C1CCC(c2ccnc3ccc(F)cc23)CC1 (some centres undefined) | 11.8 µM | 46.1 µM | 56.4 µM | > 100 µM | 61.6 µM | > 100 µM | > 100 µM | 3.93 µM | 10.8 µM | 9.11 µM | 3.22 µM | 3.36 µM | 13.7 µM | 4.54 µM
Cc1sc(C(=O)Nc2cc(C(=O)NCCCN(C)C)n(C)c2)cc1NC(=O)CCCN1C(=O)c2cccc3cccc(c23)C1=O | > 100 µM | > 100 µM | > 100 µM | > 100 µM | > 100 µM | > 100 µM | > 100 µM | > 100 µM | > 100 µM | > 100 µM | 38.2 µM | > 100 µM | > 100 µM | > 100 µM
Cc1ccc2c(ccc3c[n+]4c5ccccc5ccc4n32)c1 | 2.33 µM | 3.59 µM | 3.51 µM | 10.4 µM | 25.4 µM | 3.38 µM | 18.6 µM | 0.606 µM | 0.494 µM | 1.52 µM | 1.01 µM | 0.618 µM | 2.43 µM | 0.484 µM
COc1cc(Cl)cc(-c2nn(C(=O)NCCN3CCOCC3)cc2-c2ccncc2)c1 | 13.1 µM | > 100 µM | > 100 µM | 48.9 µM | 79.9 µM | > 100 µM | > 100 µM | 11.5 µM | 7.58 µM | 4.98 µM | 2.59 µM | 5.78 µM | 7.2 µM | 5.57 µM
CC(C)(C)C#CC1=C(Br)C(=O)OC1 | > 100 µM | 66.8 µM | 19 µM | 68.1 µM | 4.71 µM | > 100 µM | 23.2 µM | 2.16 µM | 24.7 µM | 4.97 µM | > 100 µM | 16.5 µM | 23 µM | 1.69 µM
CNC(=O)c1cncc(/C=C/c2ccccc2C)c1 | > 25 µM | > 25 µM | > 25 µM | > 25 µM | > 25 µM | > 25 µM | > 25 µM | > 25 µM | > 25 µM | > 25 µM | > 25 µM | > 25 µM | > 25 µM | > 25 µM
O=CNc1c(Cl)cc2c(c1Cl)Cc1cc([N+](=O)[O-])ccc1-2 | > 100 µM | > 100 µM | > 66.8 µM | > 94.1 µM | 13.6 µM | > 100 µM | 38.7 µM | 5.56 µM | 16.5 µM | 0.923 µM | 1.11 µM | 5.49 µM | 4.21 µM | 0.359 µM
C=CCc1c2c(c(OC)c3ccoc13)C(=O)/C(=C/c1ccccc1OC)O2 | 92 µM | > 100 µM | 14.7 µM | 20.5 µM | > 100 µM | > 100 µM | > 100 µM | 2.88 µM | 5.83 µM | 5.27 µM | 3.91 µM | 4.34 µM | 3.22 µM | 4.41 µM
COc1c(CCC[P+](c2ccccc2)(c2ccccc2)c2ccccc2)cc2c(c1OC)OCO2 | 2.81 µM | 35.3 µM | 10.3 µM | 42.2 µM | 51.1 µM | 12.9 µM | 10.7 µM | 2.19 µM | 1.44 µM | 1.02 µM | 1.33 µM | 0.419 µM | 3.3 µM | 3.88 µM
COC(=O)/C=C/C=C(c1ccccc1)c1ccccc1 | 13.8 µM | > 100 µM | > 100 µM | > 100 µM | 32.8 µM | > 100 µM | – | 16.3 µM | 9.31 µM | – | 3.43 µM | 3.16 µM | 14.3 µM | 4.06 µM
O=C(c1ccccc1)C1N=NCC1c1ccc([N+](=O)[O-])cc1 (centres undefined) | 59.6 µM | 30.9 µM | > 100 µM | > 100 µM | > 100 µM | > 100 µM | – | – | – | – | – | – | – | –
COc1ccc(-c2ccc(/C=N/n3c(COc4ccc(Cl)cc4Cl)n[nH]c3=S)o2)c([N+](=O)[O-])c1 | – | > 100 µM | 33.2 µM | 11.9 µM | > 100 µM | > 100 µM | > 100 µM | 16.1 µM | 28.4 µM | 38.7 µM | – | 44 µM | 2.52 µM | 48.9 µM
